# Reference: patent US10597388B2, “Pyridazinone herbicides” (FMC CORPORATION, priority 2014, dated 2020)
# What was measured:
# Format in all cases: in vivo
# [1] = tested on: field poppy (Papaver rhoeas); assay: Test D controlled growth environment herbicide test, pre- and postemergence
# From the text: (§1) Seeds of plant species selected from bluegrass (annual bluegrass, Poa annua), blackgrass (Alopecurus myosuroides), Canada thistle (Cirsium arvense), canarygrass (Phalaris minor), chickweed (common chickweed, Stellaria media), geranium, cutleaf (cutleaf geranium, Geranium dissectum), galium (catchweed bedstraw, Galium aparine), bromegrass, downy (downy bromegrass, Bromus tectorum), field poppy (Papaver rhoeas), field violet (Viola arvensis), foxtail, green (green foxtail, Setaria viridis), deadnettle (henbit deadnettle, Lamium amplexicaule), ryegrass, Italian (Italian ryegrass, Lolium multiflorum), kochia (Kochia scoparia), lambsquarters (Chenopodium album), oilseed rape (Brassica napus), pigweed (Amaranthus retroflexus), chamomile (scentless chamomile, Matricaria inodora), Russian thistle (Salsola kali), speedwell (bird's-eye speedwell, Veronica persica), barley, spring (spring barley, Hordeum vulgare), wheat, spring (spring wheat, Triticum aestivum), buckwheat, wild (wild buckwheat, Polygonum convolvulus), mustard, wild (wild mustard, Sinapis arvensis), oat, wild (wild oat, Avena fatua), radish, wild (wild radish, Raphanus raphanistrum), windgrass (Apera spica-venti), barley, winter (winter barley, Hordeum vulgare), and wheat, winter (winter wheat, Triticum aestivum) were planted into a silt loam soil and treated preemergence with test chemicals formulated in a non-phytotoxic solvent mixture which included a surfactant.
# (§2) At the same time, these species were planted in pots containing Redi-Earth® planting medium (Scotts Company, 14111 Scottslawn Road, Marysville, Ohio 43041) comprising spaghnum peat moss, vermiculite, wetting agent and starter nutrients and treated with postemergence applications of the test chemicals formulated in the same manner. Plants ranged in height from 2 to 18 cm (1- to 4-leaf stage). Treated plants and controls were maintained in a controlled growth environment for 14 to 21 d after which time all species were compared to controls and visually evaluated. Plant response ratings, summarized in Table D, are based on a scale of 0 to 100 where 0 is no effect and 100 is complete control. A dash (-) response means no test result.
# [2] = tested on: radish, wild (wild radish, Raphanus raphanistrum); assay: as above
# From the text: as §1, §2
# [3] = tested on: chamomile (scentless chamomile, Matricaria inodora); assay: as above
# From the text: as §1, §2
# [4] = tested on: barley, winter (winter barley, Hordeum vulgare); assay: as above
# From the text: as §1, §2
# [5] = tested on: mustard, wild (wild mustard, Sinapis arvensis); assay: as above
# From the text: as §1, §2
# [6] = tested on: foxtail, green (green foxtail, Setaria viridis); assay: as above
# From the text: as §1, §2
# [7] = tested on: windgrass (Apera spica-venti); assay: as above
# From the text: as §1, §2
# [8] = tested on: blackgrass (Alopecurus myosuroides); assay: as above
# From the text: as §1, §2
# [9] = tested on: deadnettle (henbit deadnettle, Lamium amplexicaule); assay: as above
# From the text: as §1, §2
# [10] = tested on: lambsquarters (Chenopodium album); assay: as above
# From the text: as §1, §2
# [11] = tested on: waterhemp_RES2 (ALS & HPPD resistant common waterhemp, Amaranthus rudis); assay: Test E greenhouse herbicide test, postemergence
# Description: (§3) At the same time, plants from these crop and weed species and also waterhemp_RES1, (ALS & Triazine resistant common waterhemp, Amaranthus rudis), and waterhemp_RES2, (ALS & HPPD resistant common waterhemp, Amaranthus rudis) were planted in pots containing Redi-Earth® planting medium (Scotts Company, 14111 Scottslawn Road, Marysville, Ohio 43041) comprising spaghnum peat moss, vermiculite, wetting agent and starter nutrients were treated with postemergence applications of test chemicals formulated in the same manner. Plants ranged in height from 2 to 18 cm for postemergence treatments (1- to 4-leaf stage). Treated plants and controls were maintained in a greenhouse for 14 to 21 d, after which time all species were compared to controls and visually evaluated. Plant response ratings, summarized in Table E, are based on a scale of 0 to 100 where 0 is no effect and 100 is complete control. A dash (-) response means no test result.
# [12] = tested on: waterhemp_RES1 (ALS & Triazine resistant common waterhemp, Amaranthus rudis); assay: Test E greenhouse herbicide test, postemergence
# Description: as §3
# [13] = Postemergence, 31 g ai/ha, scale 0 to 100 (0 no effect, 100 complete control)
# [14] = Postemergence, 125 g ai/ha, visual rating on scale 0 (no effect) to 100 (complete control), 14 to 21 d
# [15] = Postemergence, 250 g ai/ha, scale 0 to 100 (0 no effect, 100 complete control)
# [16] = Preemergence, 62 g ai/ha, scale 0 to 100 (0 no effect, 100 complete control)
# [17] = Preemergence, 125 g ai/ha, scale 0 to 100 (0 no effect, 100 complete control)
# [18] = Preemergence, 250 g ai/ha, scale 0 to 100, 0 no effect, 100 complete control
# [19] = postemergence, 62 g ai/ha, scale 0 to 100, 0 no effect, 100 complete control
# [20] = 31 g ai/ha, visual, scale 0 no effect to 100 complete control
# [21] = 62 g ai/ha, scale 0 to 100 (0 no effect, 100 complete control)
# [22] = 125 g ai/ha, scale 0 to 100 (0 no effect, 100 complete control)
# [23] = 250 g ai/ha, scale 0 to 100 (0 no effect, 100 complete control)
smiles,measurement,setting,value
Cn1nc(Br)c(O)c(-c2cccc3ccccc23)c1=O [Compound 20],Field Poppy plant response rating,[1]; [13],30
same,"Plant response rating, Field Poppy",[1]; [14],100
same,"Plant response rating, Field Poppy",[1]; [15],100
same,"Plant response rating (scale of 0 to 100), Field Poppy","[1]; Preemergence, 31 g ai/ha",70
same,"Plant response rating, Field Poppy",[1]; [16],70
same,"Plant response rating, Field Poppy",[1]; [17],95
same,"Plant response rating, Field Poppy",[1]; [18],100
same,"Plant response rating, Field Poppy",[1]; [19],60
same,"Radish, Wild plant response rating",[2]; [13],50
same,"Plant response rating, Radish, Wild",[2]; [14],70
same,"Plant response rating, Radish, Wild",[2]; [15],65
same,"Plant response rating (scale of 0 to 100), Radish, Wild","[2]; Preemergence, 31 g ai/ha",0
same,"Plant response rating, Radish, Wild",[2]; [16],0
same,"Plant response rating, Radish, Wild",[2]; [17],50
same,"Plant response rating, Radish, Wild",[2]; [18],65
same,"Plant response rating, Radish, Wild",[2]; [19],40
same,Chamomile plant response rating,[3]; [13],70
same,"Plant response rating, Chamomile",[3]; [14],100
same,"Plant response rating, Chamomile",[3]; [15],100
same,"Plant response rating, Chamomile",[3]; [19],95
same,"Plant response rating, Barley, Winter",[4]; [13],0
same,"Plant response rating, Barley, Winter",[4]; [14],0
same,"Plant response rating, Barley, Winter",[4]; [15],0
same,"Plant response rating (scale of 0 to 100), Barley, Winter","[4]; Preemergence, 31 g ai/ha",0
same,"Plant response rating, Barley, Winter",[4]; [16],0
same,"Plant response rating, Barley, Winter",[4]; [17],0
same,"Barley, Winter plant response rating",[4]; [18],0
same,"Plant response rating, Barley, Winter",[4]; [19],0
same,"Mustard, Wild plant response rating",[5]; [13],75
same,"Plant response rating, Mustard, Wild",[5]; [14],100
same,"Plant response rating, Mustard, Wild",[5]; [15],100
same,"Plant response rating (scale of 0 to 100), Mustard, Wild","[5]; Preemergence, 31 g ai/ha",25
same,"Plant response rating, Mustard, Wild",[5]; [16],35
same,"Plant response rating, Mustard, Wild",[5]; [17],100
same,"Plant response rating, Mustard, Wild",[5]; [18],100
same,"Plant response rating, Mustard, Wild",[5]; [19],100
same,"Foxtail, Green plant response rating",[6]; [13],15
same,"Plant response rating, Foxtail, Green",[6]; [14],40
same,"Plant response rating, Foxtail, Green",[6]; [15],70
same,"Plant response rating (scale of 0 to 100), Foxtail, Green","[6]; Preemergence, 31 g ai/ha",25
same,"Plant response rating, Foxtail, Green",[6]; [16],60
same,"Plant response rating, Foxtail, Green",[6]; [17],75
same,"Plant response rating, Foxtail, Green",[6]; [18],85
same,"Plant response rating, Foxtail, Green",[6]; [19],35
same,Windgrass plant response rating,[7]; [13],25
same,"Plant response rating, Windgrass",[7]; [14],30
same,"Plant response rating, Windgrass",[7]; [15],40
same,"Plant response rating (scale of 0 to 100), Windgrass","[7]; Preemergence, 31 g ai/ha",35
same,"Plant response rating, Windgrass",[7]; [16],40
same,"Plant response rating, Windgrass",[7]; [17],50
same,"Plant response rating, Windgrass",[7]; [18],60
same,"Plant response rating, Windgrass",[7]; [19],30
same,Blackgrass plant response rating,[8]; [13],15
same,"Plant response rating, Blackgrass",[8]; [14],50
same,"Plant response rating, Blackgrass",[8]; [15],60
same,"Plant response rating (scale of 0 to 100), Blackgrass","[8]; Preemergence, 31 g ai/ha",20
same,"Plant response rating, Blackgrass",[8]; [16],40
same,"Plant response rating, Blackgrass",[8]; [17],60
same,Blackgrass plant response rating,[8]; [18],75
same,"Plant response rating, Blackgrass",[8]; [19],40
same,Deadnettle plant response rating,[9]; [13],25
same,"Plant response rating, Deadnettle",[9]; [14],55
same,"Plant response rating, Deadnettle",[9]; [15],65
same,"Plant response rating (scale of 0 to 100), Deadnettle","[9]; Preemergence, 31 g ai/ha",0
same,"Plant response rating, Deadnettle",[9]; [16],0
same,"Plant response rating, Deadnettle",[9]; [17],10
same,"Plant response rating, Deadnettle",[9]; [18],20
same,"Plant response rating, Deadnettle",[9]; [19],35
same,Lambsquarters plant response rating,[10]; [13],85
same,"Plant response rating, Lambsquarters",[10]; [14],90
same,"Plant response rating, Lambsquarters",[10]; [15],95
same,"Plant response rating (scale of 0 to 100), Lambsquarters","[10]; Preemergence, 31 g ai/ha",75
same,"Plant response rating, Lambsquarters",[10]; [16],90
same,"Plant response rating, Lambsquarters",[10]; [17],100
same,"Plant response rating, Lambsquarters",[10]; [18],100
same,"Plant response rating, Lambsquarters",[10]; [19],85
same,"Plant response rating, Waterhemp_RES2",[11]; [20],50
same,"Plant response rating, Waterhemp_RES2",[11]; [21],50
same,"Plant response rating, Waterhemp_RES2",[11]; [22],50
same,"Plant response rating, Waterhemp_RES2",[11]; [23],60
same,"Plant response rating, Waterhemp_RES1",[12]; [20],60
same,"Plant response rating, Waterhemp_RES1",[12]; [21],70
same,"Plant response rating, Waterhemp_RES1",[12]; [22],80
same,"Plant response rating, Waterhemp_RES1",[12]; [23],80
